The source of these data is ChEMBL document CHEMBL3232931 (J Med Chem, 2014).

Activity calls are given as the source filed them. No cut-off for these calls is given here.

Series [1] has as its target Replicase polyprotein 1a (Human coronavirus NL63) (UniProt P0C6U6). Description: Inhibition of human coronavirus NL63 PLP2 (amino acids 1565 to 1894) expressed in Escherichia coli BL21 (DE3) cells assessed as reduction of AMC release using Z-RLRGG-AMC as substrate at 100 uM by multimode plate reader analysis.
Series [2] is described as follows: Therapeutic index, ratio of CC50 for african green monkey Vero E6 cells to EC50 for SARS coronavirus infected in african green monkey Vero E6 cells. The series is classed as cell-based. Particulars: read-out: Ratio CC50/EC50.
Series [3] can be described thus: Metabolic stability in mouse liver microsomes assessed as parent compound remaining at 1 uM after 15 mins. The series is classed as ADME. Particulars: read-out: Stability.
The test system of series [4] is BL21-DE3. Description: Inhibition of SARS coronavirus papain-like protease (amino acids 1541 to 1855) expressed in Escherichia coli BL21 (DE3) cells assessed as decrease in AMC release using Z-RLRGG-AMC as substrate by serum shift assay based multimode plate reader analysis in presence of 5 to 20% human serum albumin. Particulars: Severe acute respiratory syndrome-related coronavirus.

Series [5] is described as follows: (§1) Inhibition of SARS coronavirus papain-like protease (amino acids 1541 to 1855) expressed in Escherichia coli BL21 (DE3) cells assessed as decrease in AMC release using Z-RLRGG-AMC as substrate by multimode plate reader analysis. More on the design: species or system Severe acute respiratory syndrome-related coronavirus.
The test system of series [6] is BL21-DE3. Described as §1. Particulars: Severe acute respiratory syndrome-related coronavirus.
Series [7] concerns the target T1, Ubiquitin carboxyl-terminal hydrolase 21 (Homo sapiens) (UniProt Q9UK80).
T1 sequence (whole entry): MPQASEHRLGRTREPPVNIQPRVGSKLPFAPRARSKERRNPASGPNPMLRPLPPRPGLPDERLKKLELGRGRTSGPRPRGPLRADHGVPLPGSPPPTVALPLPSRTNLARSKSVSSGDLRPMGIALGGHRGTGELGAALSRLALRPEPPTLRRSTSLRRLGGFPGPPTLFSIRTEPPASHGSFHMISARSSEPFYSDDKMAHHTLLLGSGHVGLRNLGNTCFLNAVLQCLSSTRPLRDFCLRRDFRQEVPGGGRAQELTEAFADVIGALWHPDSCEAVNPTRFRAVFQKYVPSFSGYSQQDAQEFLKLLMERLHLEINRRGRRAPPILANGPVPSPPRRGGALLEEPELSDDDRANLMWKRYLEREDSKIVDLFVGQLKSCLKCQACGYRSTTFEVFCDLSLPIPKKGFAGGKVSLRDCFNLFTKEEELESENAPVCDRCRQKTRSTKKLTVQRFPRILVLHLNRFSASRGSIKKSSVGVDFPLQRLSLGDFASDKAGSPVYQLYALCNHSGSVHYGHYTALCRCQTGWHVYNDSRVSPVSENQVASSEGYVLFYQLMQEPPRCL
Description: Inhibition of human USP21 using Ub-rhodamine 110 as substrate at 31 uM.

The target in series [8] is T2, Sentrin-specific protease 8 (Homo sapiens) (UniProt Q96LD8).
T2 sequence (whole entry): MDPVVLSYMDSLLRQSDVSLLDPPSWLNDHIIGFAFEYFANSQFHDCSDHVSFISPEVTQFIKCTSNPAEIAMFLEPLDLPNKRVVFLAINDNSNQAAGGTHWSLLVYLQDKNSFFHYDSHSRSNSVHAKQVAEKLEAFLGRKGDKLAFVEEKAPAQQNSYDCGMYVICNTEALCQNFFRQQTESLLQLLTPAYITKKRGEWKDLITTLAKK
Description: Inhibition of human DEN1 using Nedd8-EKL as substrate at 31 uM.

The target of series [9] is Ubiquitin carboxyl-terminal hydrolase isozyme L1 (Homo sapiens) (UniProt P09936). Description: Inhibition of human UCHL1 at 31 uM.
The target in series [10] is Ubiquitin carboxyl-terminal hydrolase 7 (Homo sapiens, UniProt Q93009). Description: Inhibition of human USP7 using Ub-rhodamine 110 as substrate.
Series [11] deals with T3, Ubiquitin carboxyl-terminal hydrolase 21 (Homo sapiens, UniProt Q9UK80).
T3 sequence (Q9UK80 whole entry): T1 sequence (whole entry)
Description: Inhibition of human USP21 using Ub-rhodamine 110 as substrate.

The target of the next series is T4, Caspase-3 (Homo sapiens, UniProt P42574).
T4 sequence (P42574 whole entry): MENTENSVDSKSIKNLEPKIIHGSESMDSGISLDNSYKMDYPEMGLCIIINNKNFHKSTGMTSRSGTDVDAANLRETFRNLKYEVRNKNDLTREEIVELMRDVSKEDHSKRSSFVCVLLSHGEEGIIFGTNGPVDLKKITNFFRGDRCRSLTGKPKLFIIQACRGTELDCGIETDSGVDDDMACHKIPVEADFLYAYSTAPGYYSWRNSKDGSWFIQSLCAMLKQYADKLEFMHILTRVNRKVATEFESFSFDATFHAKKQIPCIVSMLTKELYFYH
Description: Inhibition of human caspase-3 using fluorogenic peptide as substrate.

Series [12] has as its target Replicase polyprotein 1a (Human coronavirus NL63) (UniProt P0C6U6). Description: (§2) Inhibition of human coronavirus NL63 PLP2 (amino acids 1565 to 1894) expressed in Escherichia coli BL21 (DE3) cells assessed as reduction of AMC release using Z-RLRGG-AMC as substrate by multimode plate reader analysis.
Target sequence in this assay (P0C6U6 899-2462 limits assumed): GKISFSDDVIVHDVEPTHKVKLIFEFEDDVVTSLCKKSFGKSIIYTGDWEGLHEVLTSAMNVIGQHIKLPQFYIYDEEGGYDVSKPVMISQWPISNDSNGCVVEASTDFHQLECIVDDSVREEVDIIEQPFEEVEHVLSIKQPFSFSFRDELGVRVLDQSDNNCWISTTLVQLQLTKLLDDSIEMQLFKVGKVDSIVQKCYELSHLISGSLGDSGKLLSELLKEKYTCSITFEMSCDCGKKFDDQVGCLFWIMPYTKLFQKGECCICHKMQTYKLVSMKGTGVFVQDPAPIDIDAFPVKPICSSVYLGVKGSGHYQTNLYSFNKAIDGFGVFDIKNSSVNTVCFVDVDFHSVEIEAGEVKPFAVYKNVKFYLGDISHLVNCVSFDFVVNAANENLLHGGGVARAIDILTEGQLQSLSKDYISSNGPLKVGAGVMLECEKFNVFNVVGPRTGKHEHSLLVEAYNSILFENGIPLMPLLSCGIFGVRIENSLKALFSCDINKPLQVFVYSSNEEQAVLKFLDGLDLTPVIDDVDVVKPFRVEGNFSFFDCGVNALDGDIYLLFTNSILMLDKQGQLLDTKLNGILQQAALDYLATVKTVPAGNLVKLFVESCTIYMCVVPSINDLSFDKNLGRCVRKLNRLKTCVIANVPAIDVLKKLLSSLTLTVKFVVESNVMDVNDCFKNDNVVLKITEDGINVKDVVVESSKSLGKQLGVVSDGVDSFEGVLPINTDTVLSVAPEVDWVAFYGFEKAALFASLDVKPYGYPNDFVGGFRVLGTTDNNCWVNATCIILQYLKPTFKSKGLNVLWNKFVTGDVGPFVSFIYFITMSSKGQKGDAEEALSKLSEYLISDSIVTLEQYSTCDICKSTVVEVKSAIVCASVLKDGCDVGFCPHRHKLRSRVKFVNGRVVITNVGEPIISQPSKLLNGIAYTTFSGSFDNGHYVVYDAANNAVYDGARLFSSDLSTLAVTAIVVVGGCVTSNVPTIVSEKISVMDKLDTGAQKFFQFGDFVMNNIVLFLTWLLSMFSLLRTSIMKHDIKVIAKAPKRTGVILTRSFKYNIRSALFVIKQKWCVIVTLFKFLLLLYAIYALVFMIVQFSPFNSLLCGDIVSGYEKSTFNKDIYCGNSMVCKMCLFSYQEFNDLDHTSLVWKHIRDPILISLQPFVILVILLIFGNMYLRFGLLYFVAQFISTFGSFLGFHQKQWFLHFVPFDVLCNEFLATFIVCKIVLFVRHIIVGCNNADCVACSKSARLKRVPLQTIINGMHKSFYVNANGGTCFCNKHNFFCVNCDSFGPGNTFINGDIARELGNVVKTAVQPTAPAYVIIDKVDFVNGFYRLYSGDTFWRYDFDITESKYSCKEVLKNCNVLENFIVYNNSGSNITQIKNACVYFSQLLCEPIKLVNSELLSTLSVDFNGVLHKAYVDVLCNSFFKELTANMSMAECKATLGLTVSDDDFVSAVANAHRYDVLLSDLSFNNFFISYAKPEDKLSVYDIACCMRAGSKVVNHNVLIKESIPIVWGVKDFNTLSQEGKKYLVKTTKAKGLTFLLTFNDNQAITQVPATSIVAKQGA
Another series has as its target Replicase polyprotein 1a (Human coronavirus NL63, UniProt P0C6U6). The series is described as §2.

Sequence of Replicase polyprotein 1a (P0C6U6 899-2462 limits assumed): as above
Sequence of Ubiquitin carboxyl-terminal hydrolase 7 (Q93009 whole entry): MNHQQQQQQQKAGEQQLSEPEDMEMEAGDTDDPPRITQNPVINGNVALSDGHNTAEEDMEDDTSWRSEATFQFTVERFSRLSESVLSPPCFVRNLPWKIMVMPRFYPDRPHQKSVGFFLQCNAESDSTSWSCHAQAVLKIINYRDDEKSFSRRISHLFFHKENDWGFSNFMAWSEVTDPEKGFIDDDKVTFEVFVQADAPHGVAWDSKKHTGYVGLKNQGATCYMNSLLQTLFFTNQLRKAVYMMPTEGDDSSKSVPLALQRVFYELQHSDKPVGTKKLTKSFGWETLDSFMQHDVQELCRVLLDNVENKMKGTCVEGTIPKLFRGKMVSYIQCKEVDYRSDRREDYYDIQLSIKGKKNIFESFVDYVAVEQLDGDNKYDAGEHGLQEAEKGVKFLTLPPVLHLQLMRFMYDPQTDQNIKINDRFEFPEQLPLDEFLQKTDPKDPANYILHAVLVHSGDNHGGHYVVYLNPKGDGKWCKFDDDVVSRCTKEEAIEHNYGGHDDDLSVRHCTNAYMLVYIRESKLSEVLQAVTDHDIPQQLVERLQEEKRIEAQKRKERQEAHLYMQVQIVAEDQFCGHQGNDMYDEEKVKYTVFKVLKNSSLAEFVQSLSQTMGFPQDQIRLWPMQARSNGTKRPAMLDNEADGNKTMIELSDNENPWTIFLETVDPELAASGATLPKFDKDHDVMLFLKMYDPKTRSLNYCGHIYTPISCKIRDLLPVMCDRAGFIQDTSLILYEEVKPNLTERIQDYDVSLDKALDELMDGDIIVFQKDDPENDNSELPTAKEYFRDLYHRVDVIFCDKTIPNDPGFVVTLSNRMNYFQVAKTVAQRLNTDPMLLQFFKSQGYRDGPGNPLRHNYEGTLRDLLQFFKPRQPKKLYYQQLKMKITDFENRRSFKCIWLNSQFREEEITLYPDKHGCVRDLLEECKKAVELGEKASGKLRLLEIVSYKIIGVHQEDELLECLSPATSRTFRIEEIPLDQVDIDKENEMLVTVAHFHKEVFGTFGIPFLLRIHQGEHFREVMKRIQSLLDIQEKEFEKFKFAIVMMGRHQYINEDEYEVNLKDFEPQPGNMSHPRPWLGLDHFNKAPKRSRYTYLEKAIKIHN
Sequence of Ubiquitin carboxyl-terminal hydrolase isozyme L1 (Homo sapiens) (P09936 whole entry, looked up): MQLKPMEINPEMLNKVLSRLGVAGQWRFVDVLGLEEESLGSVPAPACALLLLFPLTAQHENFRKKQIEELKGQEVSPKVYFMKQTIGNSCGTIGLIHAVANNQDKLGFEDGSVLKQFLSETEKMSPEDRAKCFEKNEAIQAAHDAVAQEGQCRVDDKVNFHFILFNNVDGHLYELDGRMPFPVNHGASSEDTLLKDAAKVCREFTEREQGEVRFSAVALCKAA

As to `C[C@H](c1cccc2ccccc12)N1CCC(C(=O)NCc2cccc(F)c2)CC1`, the inhibition is more than 30% in [1], 15% in series [7], less than 10% in series [8] and less than 10% in series [9]. The selectivity ratio in [2] was more than 18.5. Further, in [3], the remaining at 0.25 h, 1 µM turned out to be 1.2%. The inhibition result in the series with BL21-DE3 [4] was “Active”. The IC50 was 0.15 µM in series [5]; “Not Active” in series [10]; more than 31 µM in series [11]; “Not Active” on Caspase-3; 33 µM on Replicase polyprotein 1a. In addition, the Imax with BL21-DE3 [6] was 100%; in series [12] it was 57%.
As to `C[C@H](c1cccc2ccccc12)N1CCC(C(=O)NCc2ccc3c(c2)OCO3)CC1`, the inhibition in series [1] is more than 30%; in series [7] it was 15%; in series [8], less than 10%; in series [9], less than 10%. Moreover, in [3], the remaining at 0.25 h, 1 µM is 0.2%. For the same compound, the inhibition entry in the series with BL21-DE3 [4] was “Active”. Also, the IC50 in [5] is 0.67 µM; in series [10] it was “Not Active”; in [11], more than 31 µM; at Caspase-3, “Not Active”; at Replicase polyprotein 1a, 18 µM. For the same compound, the Imax in the series on BL21-DE3 [6] was determined as 99%; in series [12], 46%.
With `CC(=O)Nc1cccc(CNC(=O)C2CCN([C@H](C)c3cccc4ccccc34)CC2)c1`, the inhibition in series [1] is more than 30%; in [7] it was 15%; in series [8], less than 10%; in [9] it was less than 10%. Moreover, the selectivity ratio in [2] is more than 12. In addition, in series [3], the remaining at 0.25 h, 1 µM worked out at 20%. In addition, in the series on BL21-DE3 [4], the inhibition entry is “Active”. Further, the IC50 in [5] was 0.39 µM; in series [10] (read-out: IC50) it was more than 100 µM; in series [11], more than 31 µM; on Caspase-3 it was “Not Active”; on Replicase polyprotein 1a it was 46 µM. In addition, the Imax worked out at 100% in the series with BL21-DE3 [6] and 71% in series [12].
`C[C@H](c1cccc2ccccc12)N1CCC(C(=O)NCc2ccc(F)cc2)CC1`: in series [2], the selectivity ratio was more than 8.6. For the same compound, in the series on BL21-DE3 [4], the inhibition entry is “Active”. The IC50 in series [5] is 0.49 µM; in series [10] it was “Not Active”; in series [11] it was more than 31 µM; on Caspase-3 it was “Not Active”. Besides, the inhibition in series [7] is 15%; in [8], less than 10%; in [9], less than 10%.
